IC50 and Ki data for 11 compounds are collected here from ChEMBL document CHEMBL1909046, “DrugMatrix in vitro pharmacology data”.

Experiment [1] has as its target Tyrosine-protein kinase Lck (Homo sapiens, UniProt P06239). Nature of the experiment: DRUGMATRIX: Protein Tyrosine Kinase, LCK enzyme inhibition (substrate: Poly(Glu:Tyr)). In kind it is cell-based, Insect cells. Particulars: insect cells, Not Active = under 50% inhibition at 10 µM.
The target in experiment [2] is T1, C-X-C chemokine receptor type 2 (Homo sapiens, UniProt P25025). Note: in other assays of this panel Not Active means under 50% inhibition at 10 µM.
T1 sequence (P25025 whole entry): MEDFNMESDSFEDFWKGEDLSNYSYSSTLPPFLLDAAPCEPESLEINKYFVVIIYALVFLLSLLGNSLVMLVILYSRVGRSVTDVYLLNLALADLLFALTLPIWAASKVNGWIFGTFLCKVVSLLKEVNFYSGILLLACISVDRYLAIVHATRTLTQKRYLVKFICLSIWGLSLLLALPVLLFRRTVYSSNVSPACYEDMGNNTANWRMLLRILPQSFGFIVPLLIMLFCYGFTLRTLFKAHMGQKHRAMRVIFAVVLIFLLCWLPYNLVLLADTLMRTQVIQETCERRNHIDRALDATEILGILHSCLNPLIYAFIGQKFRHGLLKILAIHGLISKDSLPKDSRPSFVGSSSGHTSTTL
Type of experiment: cell membranes, Membrane. As to conditions: cho-k1.

The nature of experiment [3]: DRUGMATRIX: GABAA, Chloride Channel, TBOB radioligand binding (ligand: [3H] TBOB). In kind it is cell membranes, Rattus norvegicus, Wistar, Cerebral cortex, Membrane. As to conditions: Not Active = under 50% inhibition at 10 µM.
Experiment [4] concerns the target T2, Cholecystokinin receptor type A (Homo sapiens, UniProt P32238). Note: in other assays of this panel Not Active means under 50% inhibition at 10 µM.
T2 sequence (P32238 whole entry): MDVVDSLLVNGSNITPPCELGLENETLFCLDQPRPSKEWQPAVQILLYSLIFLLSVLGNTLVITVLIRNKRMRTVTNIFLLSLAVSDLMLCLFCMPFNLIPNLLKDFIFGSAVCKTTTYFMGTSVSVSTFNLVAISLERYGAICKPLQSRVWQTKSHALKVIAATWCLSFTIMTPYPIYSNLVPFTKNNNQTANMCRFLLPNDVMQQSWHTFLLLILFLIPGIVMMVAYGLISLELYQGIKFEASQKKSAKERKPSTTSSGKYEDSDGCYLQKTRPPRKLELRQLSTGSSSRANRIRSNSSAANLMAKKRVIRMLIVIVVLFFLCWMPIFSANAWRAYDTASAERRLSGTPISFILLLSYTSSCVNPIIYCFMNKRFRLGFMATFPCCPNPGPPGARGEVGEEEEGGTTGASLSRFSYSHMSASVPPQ
In kind it is cell membranes, Membrane. As to conditions: 1321-n1.

For experiment [5], the target named is 5-hydroxytryptamine receptor 1B (Rattus norvegicus, UniProt P28564). Type of experiment: cell membranes, Wistar, Cerebral cortex, Membrane. Note: in other assays of this panel Not Active means under 50% inhibition at 10 µM.
5-hydroxytryptamine receptor 1B, sequence (P28564 whole entry): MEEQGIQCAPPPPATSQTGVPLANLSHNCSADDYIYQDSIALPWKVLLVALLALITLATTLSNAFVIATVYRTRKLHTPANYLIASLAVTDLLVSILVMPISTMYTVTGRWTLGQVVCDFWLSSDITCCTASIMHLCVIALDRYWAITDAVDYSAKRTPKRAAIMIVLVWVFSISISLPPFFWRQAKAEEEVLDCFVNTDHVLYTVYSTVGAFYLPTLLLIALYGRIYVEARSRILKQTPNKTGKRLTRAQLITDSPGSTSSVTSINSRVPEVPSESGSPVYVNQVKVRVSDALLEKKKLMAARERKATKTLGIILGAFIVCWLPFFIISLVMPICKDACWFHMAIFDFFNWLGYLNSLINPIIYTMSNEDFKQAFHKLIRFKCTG
Experiment [6] can be described thus: DRUGMATRIX: ATPase, Na+/K+ enzyme inhibition (substrate: ATP). Type of experiment: tissue-based, Sus scrofa, Heart. Particulars: Not Active = under 50% inhibition at 10 µM.
Experiment [7] deals with C-C chemokine receptor type 2 (Homo sapiens, UniProt P41597). Type of experiment: cell membranes, CHO-K1, Membrane. Particulars: cho-k1.
C-C chemokine receptor type 2, sequence (P41597 whole entry): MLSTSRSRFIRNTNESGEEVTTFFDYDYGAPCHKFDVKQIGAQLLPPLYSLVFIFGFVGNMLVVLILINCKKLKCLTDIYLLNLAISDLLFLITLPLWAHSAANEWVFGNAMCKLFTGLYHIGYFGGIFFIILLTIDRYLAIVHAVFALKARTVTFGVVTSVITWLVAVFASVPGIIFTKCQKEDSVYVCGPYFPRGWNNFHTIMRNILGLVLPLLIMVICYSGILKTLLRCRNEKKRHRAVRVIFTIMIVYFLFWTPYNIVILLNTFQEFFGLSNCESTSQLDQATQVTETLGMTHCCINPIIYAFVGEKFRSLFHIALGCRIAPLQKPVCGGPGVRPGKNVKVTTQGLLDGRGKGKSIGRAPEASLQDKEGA

Tyrosine-protein kinase Lck, sequence (P06239 whole entry): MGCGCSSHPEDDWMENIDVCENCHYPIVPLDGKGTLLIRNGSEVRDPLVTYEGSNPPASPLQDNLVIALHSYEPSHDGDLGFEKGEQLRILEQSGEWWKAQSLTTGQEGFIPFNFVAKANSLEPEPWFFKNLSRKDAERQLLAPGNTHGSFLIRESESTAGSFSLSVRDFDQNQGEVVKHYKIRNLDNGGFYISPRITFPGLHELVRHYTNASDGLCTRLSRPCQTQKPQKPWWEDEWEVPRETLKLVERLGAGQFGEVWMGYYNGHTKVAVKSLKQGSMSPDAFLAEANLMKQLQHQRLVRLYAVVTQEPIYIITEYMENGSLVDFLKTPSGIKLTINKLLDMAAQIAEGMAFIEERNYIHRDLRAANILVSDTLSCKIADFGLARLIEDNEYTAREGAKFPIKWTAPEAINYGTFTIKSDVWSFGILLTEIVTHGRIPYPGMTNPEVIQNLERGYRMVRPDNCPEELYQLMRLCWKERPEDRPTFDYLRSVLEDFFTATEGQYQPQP

Turning to `C[C@]12C/C(=C/O)C(=O)C[C@@H]1CC[C@@H]1[C@@H]2CC[C@@]2(C)[C@H]1CC[C@]2(C)O` [OXYMETHOLONE], the concentration for half-maximal inhibition (IC50) entry in experiment [1], in experiment [2], in experiment [3], in experiment [4], in experiment [5] and in experiment [6] was “Not Active” each time. Also, the half-maximal inhibitory concentration (IC50) result in experiment [7] is on record as “Not Active”. Besides, the Ki result in experiment [3] and in experiment [6] was “Not Active” in each case.

As to `CC(C)(CO)C(O)C(=O)NCCCO` (stereo not drawn) [PANTHENOL], the IC50 entry in experiment [1], in experiment [2], in experiment [3], in experiment [4], in experiment [5] and in experiment [6] was “Not Active” throughout. In experiment [7], the IC50 entry is “Not Active”. Further, the Ki result in experiment [3] and in experiment [6] was “Not Active” throughout.

As for `COc1ccc(Cc2nccc3cc(OC)c(OC)cc23)cc1OC` [PAPAVERINE], the IC50 result in experiment [1], in experiment [2], in experiment [3], in experiment [4], in experiment [5] and in experiment [6] was “Not Active” each time. In addition, the IC50 result in experiment [7] is listed as “Not Active”. Also, the Ki entry in experiment [3] and in experiment [6] was “Not Active” each time.

Regarding `OCCN1CCN(CCCN2c3ccccc3Sc3ccc(Cl)cc32)CC1` [PERPHENAZINE], the IC50 entry in experiment [1], in experiment [2], in experiment [3], in experiment [4], in experiment [5] and in experiment [6] was “Not Active” in each case. Also, the IC50 result in experiment [7] was “Not Active”. For the same compound, the Ki entry in experiment [3] and in experiment [6] was “Not Active” each time.

For `CCCCC1C(=O)N(c2ccccc2)N(c2ccccc2)C1=O` [PHENYLBUTAZONE], the IC50 entry in experiment [1], in experiment [2], in experiment [3], in experiment [4], in experiment [5] and in experiment [6] was “Not Active” in each case. The IC50 result in experiment [7] is “Not Active”. The Ki entry in experiment [3] and in experiment [6] was “Not Active” throughout.

For `Cc1cccc(Nc2cc(Cl)nc(SCC(=O)O)n2)c1C` [PIRINIXIC ACID], the IC50 entry in experiment [1], in experiment [2], in experiment [3], in experiment [4], in experiment [5] and in experiment [6] was “Not Active” each time. Further, the IC50 entry in experiment [7] is recorded as “Not Active”. The Ki entry in experiment [3] and in experiment [6] was “Not Active” in each case.

On to `CC[C@H](C)C(=O)O[C@H]1C[C@H](O)C=C2C=C[C@H](C)[C@H](CC[C@@H](O)C[C@@H](O)CC(=O)O)[C@H]21` [PRAVASTATIN], for which the IC50 entry in experiment [1], in experiment [2], in experiment [3], in experiment [4], in experiment [5] and in experiment [6] was “Not Active” in each case. Also, the IC50 entry in experiment [7] is given as “Not Active”. Besides, the Ki result in experiment [3] and in experiment [6] was “Not Active” each time.

In the case of `CC(C)(Sc1cc(C(C)(C)C)c(O)c(C(C)(C)C)c1)Sc1cc(C(C)(C)C)c(O)c(C(C)(C)C)c1` [PROBUCOL], the half-maximal inhibitory concentration (IC50) entry in experiment [1], in experiment [2], in experiment [3], in experiment [4], in experiment [5] and in experiment [6] was “Not Active” in each case. For the same compound, in experiment [7], the IC50 result is reported as “Not Active”. Besides, the Ki entry in experiment [3] and in experiment [6] was “Not Active” in each case.

Take COBALT(II) ACETYLACETONATE: the IC50 result in experiment [1], in experiment [2], in experiment [3], in experiment [4], in experiment [5] and in experiment [6] was “Not Active” throughout. Also, in experiment [7], the IC50 result was “Not Active”. Moreover, the Ki entry in experiment [1], in experiment [2], in experiment [3], in experiment [4], in experiment [5] and in experiment [6] was “Not Active” throughout. Further, in experiment [7], the Ki result is listed as “Not Active”.

On to INSULIN HUMAN, for which the IC50 in experiment [1] (read-out: IC50) is 18.1 µM; in experiment [2], “Not Active”; in experiment [3], “Not Active”; in experiment [4] it was “Not Active”; in experiment [5], “Not Active”; in experiment [6] it was “Not Active”. Besides, in experiment [7], the IC50 result was “Not Active”. For the same compound, the Ki result in experiment [2], in experiment [3], in experiment [4], in experiment [5], in experiment [6] and in experiment [7] was “Not Active” in each case.

For POLYVINYL ALCOHOL, the IC50 entry in experiment [1], in experiment [2], in experiment [3], in experiment [4], in experiment [5] and in experiment [6] was “Not Active” each time. In experiment [7], the IC50 result was “Not Active”. The Ki result in experiment [1], in experiment [2], in experiment [3], in experiment [4], in experiment [5] and in experiment [6] was “Not Active” throughout. Further, the Ki result in experiment [7] was “Not Active”.

One may read the IC50 as the concentration needed to halve the response being measured.
